Test: Water solubility / water insolubility by visual observation
Format: physicochemical
Conditions: 0.4 g sample in 4 g distilled water, 20° C., 30 minutes
Experimental: As used herein and in the claims, a water-soluble compound means a compound having a solubility in water of 10 g/100 g H2O or more at 20° C.
4 g of distilled water and 0.4 g of a sample were sufficiently stirred at 20° C., allowed to stand for 30 minutes, and then visually observed. When white turbidity and biphasic separation were not observed, it was judged to be water soluble. When white turbidity or biphasic separation was observed, it was judged to be water insoluble.

| Compound | water solubility / water insolubility |
| --- | --- |
| C=C(C)C(=O)OCCO [HEMA, hydroxyethyl methacrylate] | WATER-SOLUBLE |
| C=C(C)C(=O)OCCOC(=O)NCCC(C)CC(C)(C)CNC(=O)OCCOC(=O)C(=C)C (centres unmarked) [UDMA, di-2-methacryloxyethyl-2,2,4-triethylhexamethylene dicarbamate] | WATER-SOLUBLE |

Other lines, results leading:

| water solubility / water insolubility | Compound |
| --- | --- |
| WATER-SOLUBLE | C=C(C)C(=O)OCCOCCOCCOC(=O)C(=C)C [TEGDMA, triethylene glycol dimethacrylate] |
| WATER-SOLUBLE | C=CC(=O)NCCO [HEAA, hydroxyethyl acrylamide] |
| WATER-SOLUBLE | isocyanuric acid EO-modified trimethacrylate [UA-7100] |

Source: patent US12502338B2, “Dental glass ionomer cement” (GC Corporation, priority 2020, dated 2025)
